Entries after “also recorded” stand apart in the source; their conditions may differ.
How the values were obtained:
[1] = test system: mouse platelets; assay: Survival of mouse platelets stored 20 hrs at RT in pPAS with or without DGJ after transfusion; format: in vivo; conditions: 2 mM DGJ in pPAS, 30% plasma 70% pPAS, 20-hr storage at RT, vs pPAS alone
Description: Materials and Methods: Blood was obtained from anesthetized 8 weeks old C57/Bl6 mice by retroorbital bleeding. Platelets and platelet poor plasma (PPP) were prepared by differential centrifugation as described. Isolated platelets were labeled with 2.5 μM of CMFDA for 15 min. Following staining, platelets were pelleted and resuspended in 500 μl of plasma, or in a mixture of 30% plasma and 70% pPAS (i.e., PPS9 formulation in Tables 1 and 3 without the 2 mM of DGJ shown in the tables) or pPAS+DGJ (2 mM) (PPS9 formulation in Tables 1 and 3). Platelets were stored for 20 hrs at room temperature and transfused into 8 weeks old syngeneic mice. Non-stored fresh platelets in plasma were used as control. Platelet survivals were determined by intravenous injections CMFDA-labeled mouse platelets, respectively. Blood was collected by retroorbital bleeding at 5 min, 2, 24, 48 and 72 hrs. The percentages of CMFDA-positive platelets were determined by flow cytometry.

[2] = test system: mouse platelets; assay: Sialidase-induced β-galactose exposure on platelets, lectin binding by flow cytometry; format: cell-based
[3] = test system: platelet GPIbα and GPV receptor surface expression; assay: Recombinant TACE-mediated GPIbα and GPV shedding from platelets; format: cell-based, mouse
[4] = test system: mouse platelets; assay: Sialidase (neuraminidase)-induced loss of platelet surface receptors, flow cytometry and immunoblot; format: cell-based
[5] = test system: mouse platelets; assay: β-galactose exposure by FITC RCA-1 lectin binding with fetuin as competitive sialidase substrate; format: cell-based; conditions: fetuin 1 mg/mL
[6] = test system: mouse platelets; assay: Surface receptor loss of mouse platelets stored at room temperature; format: cell-based; conditions: mouse platelets stored at room temperature for 6 h, with fetuin (30-60% loss without)
[7] = test system: THP-1 cells; assay: Ingestion of β-galactosidase treated platelets by THP-1 cells; format: cell-based; conditions: fresh human platelets treated with β-galactosidase
Description: FIG. 44 is a bar graph showing that […] cells ingestion of human platelets correlates with decrease in β-galactose exposure. Isolated human platelets were labeled with CM-Orange, added to THP-1 cells and incubated for 30 min at 37° C. Ingestion of fluorescently labeled control fresh room temperature platelets and platelets treated by β-galactosidase was detected using flow cytometry, as an increase in […] associated orange fluorescence.
We treated fresh isolated platelets from healthy volunteers with β-galactosidase, which cleaves terminal β-galactose from platelet surfaces.

## OC[C@H]1NC[C@H](O)[C@@H](O)[C@H]1O [DGJ, 1-deoxygalactonojirimycin]
[1]
  survival of the transfused platelets: significantly improved the survival of the transfused platelets

## CNC(=O)[C@H](Cc1c[nH]c2ccccc12)NC(=O)[C@@H](CC(=O)NO)CC(C)C [GM6001]
[2]
  β-galactose exposure induced by sialidase in presence of inhibitor: did not prevent β-galactose exposure
[3]
  receptor shedding by rTACE in presence of inhibitor: inhibited receptor shedding

## fetuin: neuraminidase (NA) substrate, competitive sialidase substrate
[4]
  loss (shedding) of platelet GPIbα and GPV induced by sialidase/neuraminidase, in presence of inhibitor: completely prevented this loss
[5]; fresh platelets at room temperature
  RCA-1 binding to fresh platelets: no effect
[5]; mouse platelet rich plasma, refrigeration 48 h
  sialic acid hydrolysis (β-galactose exposure, RCA-1 binding) during platelet storage: inhibits the hydrolysis of sialic acid from platelet glycans; also recorded: greatly inhibits sialic acid hydrolysis
[6]
  loss of GPIb and GPV: 10-20%

## rTACE: recombinant TACE (ADAM17) metalloprotease
[3]; platelets treated with rTACE
  GPIbα released from platelets: 47%±6
  GPV released from platelets: 18%±12
[3]; platelets treated with rTACE, not shown
  GPIX and αIIbβ3 released from platelets: negligible amounts

## β-galactosidase
[7]
  ingestion of platelets by THP-1 cells compared to control platelets: 4 fold

— US9788539B2, “Platelet protection solution having beta-galactosidase and sialidase inhibitors” (Velico Medical, Inc., priority 2011, dated 2017)
